Legend:
Type in all cases: cell-based
[1] = molecular target: T1, DPP1 in HL-60 cells (Homo sapiens, UniProt P53634); test: DPP1 Cell IC50 Assay; details: H-Gly-Phe-AFC substrate
T1 construct: HL-60 cells (ATCC; host or cells: HL-60
Description: HL-60 cells (ATCC; Manassas, VA) were maintained in RPMI-1640 supplemented with 20% heat-inactivated FBS and 1X Antibiotic Antimycotic (Cytiva; Marlborough, MA). Media was changed every three to four days and cells were not allowed to exceed 1×10^6 cells per mL. Prior to assay, cells were collected by centrifugation at 500 rcf for 3 minutes, resuspended in RPMI and counted. Cells were diluted in RPMI to a concentration of 5×10^5 live cells per mL and transferred to black 96-well plates for assay, 60 μL per well. Test articles were diluted in RPMI plus 0.5% DMSO, and 20 μL was added to each assay well. Compound was allowed to pre-incubate with cells with gentle shaking at 100 rpm for 60 minutes at 37° C. in a cell culture incubator maintained at 5% CO2, after which 20 μL of 500 μM H-Gly-Phe-AFC substrate (MP Biomedicals; Solon, OH) in RPMI was added to each well. Plates were returned to the incubator with shaking at 100 rpm for 30 minutes, after which fluorescence was measured at Excitation/Emission 400/505 nm. Percent (%) Inhibition was calculated from RFU values compared to control cell wells that received only RPMI plus 0.5% DMSO. IC50 values for each compound were calculated via the XLFit (IDBS Version 5.3.1.3) Add-On to Microsoft Excel using the four parameter fit equation y=(A+ ((B−A)/(1+ ((C/x)^D)))), which appears as equation number 205 (4 Parameter Logistic Model or Sigmoidal Dose-Response Model) in XLFit.

[2] = system: Neutrophil elastase (NE); test: Neutrophil elastase activity in lysates of mouse bone marrow progenitor cells differentiated into neutrophils under DPP1 inhibitor
Description: (§1) Male or female C57BL/6 mice at the age of 8-14 weeks were used.
(§2) The two femurs and two tibias were removed out of a single mouse and gauze was used to remove the muscles and residue tissues. A sterile environment for surgical instruments and surgical sites is maintained. The bones were put into one 15-mL tube with cold sterile RPMI medium and placed on ice until further processing is performed.
(§3) A fresh 50-mL tube is placed on ice and a fresh 40/70 μm cell strainer (CLS431750, Sigma) is inserted into the top of the Falcon tube. Both ends of two femurs and two tibias are cut with bone cutters and flush bone marrow of all bones from one single mouse are placed into the cell strainer. 5-mL of ice-cold RPMI (RPMI medium containing 10 mM HEPES, pH 7.4) was used for each femur or tibia using a blunt needle (25 G needle), totaling about 20 mL per tube.
(§4) The cell suspension is centrifuged at 600×g for 5 min at 4° C. and the supernatant is carefully discarded.
(§5) The cell pellet is resuspended in 400 μL of ice-cold MACS buffer (PH7.2 PBS plus 0.5% BSA and 2 mM EDTA) for one adult mouse (optimized for 4 bones/mouse).
(§6) 100 μL Direct Lineage Cell Depletion Cocktail (which is enough for 100 million cells depletion) is added. The components are mixed well and incubated for 10 min. at 2° C.-8° C.
(§7) Magnetic separation LS Column (MACS, Miltenyi, 130 042 401) is prepared by placing it in the magnetic field of MACS Separator and rinsing with 3 mL of ice-cold MACS buffer.
(§8) Cell suspension is applied onto the column. Flow-through containing unlabeled cells, representing the enriched lineage negative cells, is collected.
(§9) Column is washed with 3×3 mL of ice-cold MACS buffer. Unlabeled cells that pass through are collected, representing the enriched lineage negative cells, and combined with the flow-through from prior step.
(§10) The cell suspension is centrifuged at 600×g for 5 min at 4° C., and the supernatant is carefully discarded. The pellet is washed once with 10 mL ice cold IMDM medium (IMDM GlutaMax (Gibco, 31980030) plus 10% FCS and 1% PS).
(§11) The cell pellet is resuspended with 2 mL ice-cold complete IMDM medium and the cells are counted. The cells are then ready for neutrophil differentiation.
(§12) The resulting undifferentiated bone marrow cells are in complete IMDM medium (IMDM with 10% FBS and 1% antibiotics); and the concentration of cells is adjusted to 1×10^5 cells/mL, supplemented with 50 ng/ml of SCF (BioLegend, 579704) and 50 ng/ml of IL 3 (BioLegend, 575504). The cells are subgrouped and the respective DPP1 inhibitors are added accordingly. Cells are then cultivated in a flask at 37° C. for 3 days.
(§13) Cells are checked each day for expansion and maintaining a final concentration between 2-10×10^5 cells/ml. On day 3, cells are counted. 3-4 million cells for each group are harvested and lystates prepared for NSPs activity detection. The left cells are resuspended at 2× 10^5 cells/mL in fresh medium supplemented with 50 ng/ml of SCF, 50 ng/ml of IL 3 and 50 ng/ml of G-CSF (BioLegend, 574604). The DPP1 inhibitors are refreshed in the medium. Cells are then cultivated in a flask at 37° C. for another 2 days.
(§14) On day 5, cells are counted. 3-4 million cells/condition are harvested and the cells are lysed to prepare samples for NSPs activity detection. The remaining cells are collected by centrifugation at 600×g for 5 min. The left cells are washed once in 1×PBS. After the wash, the pelleted cells are resuspended in complete IMDM medium at 4-6×10^5 cells/mL supplemented with 50 ng/ml of G-CSF only. The DPP1 inhibitors in the medium are refreshed. Cells incubate for additional 2 days, for a total of 7 days from day of harvest. On day 7, cells are counted. 3-4 million cells/condition are harvested and the cell lysed to prepare samples for NSPs activity detection.
(§15) 3-4 million cells are collected into Eppendorf tubes. Samples are spun down at 600×g, 4° C. for 5 min. The supernatant is removed and resuspended in 1 mL PBS. […]

[3] = system: proteinase 3 (PR3); test: PR3 activity in lysates of mouse bone marrow progenitor cells differentiated into neutrophils under DPP1 inhibitor
Description: as §1, §2, §3, §4, §5, §6, §7, §8, §9, §10, §11, §12, §13, §14, §15

[4] = system: cathepsin G (CatG); test: CatG activity in lysates of mouse bone marrow progenitor cells differentiated into neutrophils under DPP1 inhibitor; details: for max inhibition of CatG activity observed: regardless of day
Description: as §1, §2, §3, §4, §5, §6, §7, §8, §9, §10, §11, §12, §13, §14, §15

T1 sequence (P53634 25-463): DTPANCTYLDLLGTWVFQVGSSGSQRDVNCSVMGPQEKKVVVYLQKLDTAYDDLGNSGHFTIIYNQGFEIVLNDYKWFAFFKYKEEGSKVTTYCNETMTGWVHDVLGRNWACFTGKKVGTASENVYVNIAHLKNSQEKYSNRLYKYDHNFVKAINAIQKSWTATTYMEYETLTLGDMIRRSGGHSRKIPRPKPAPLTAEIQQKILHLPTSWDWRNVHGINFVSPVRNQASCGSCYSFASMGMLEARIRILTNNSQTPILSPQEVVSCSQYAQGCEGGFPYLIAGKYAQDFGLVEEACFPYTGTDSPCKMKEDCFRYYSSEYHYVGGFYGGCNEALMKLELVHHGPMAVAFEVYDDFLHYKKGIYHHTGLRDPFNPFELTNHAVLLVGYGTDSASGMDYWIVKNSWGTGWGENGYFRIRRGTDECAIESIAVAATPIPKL

In the case of `COC1CNC[C@@H](C(=O)N[C@H](C#N)Cc2ccc(-c3ccc4oc(=O)n(C)c4c3)cc2)OC1` (single isomer, unassigned) [INSM-203, (2S,6R*)—N-[(1S)-1-cyano-2-[4-(3-methyl-2-oxo-2,3-dihydro-1,3-benzoxazol-5-yl)phenyl]ethyl]-6-methoxy-1,4-oxazepane-2-carboxamide], the IC50 [1] is reported as 0.6 ± 0.01 nM, the “Neutrophil Elastase Activity (% reduction from control)” value ([2]; 0.02 μM, Day 3) is reported as 89% and the “Neutrophil Elastase Activity (% reduction from control)” value ([2]; 0.02 μM, Day 5) is reported as 82%. For the same molecule, the “Neutrophil Elastase Activity (% reduction from control)” value ([2]; 0.02 μM, Day 7) was 84%, the “Neutrophil Elastase Activity (% reduction from control)” value ([2]; 0.1 μM, Day 3) was 91% and the “Neutrophil Elastase Activity (% reduction from control)” value ([2]; 0.1 μM, Day 5) was 84%. For the same molecule, the “Neutrophil Elastase Activity (% reduction from control)” value ([2]; 0.1 μM, Day 7) was 86%, the “maximum inhibition of NE activity observed” value (“maximum inhibition” for short) ([2]; regardless of day) was ~ 85% and the “concentration by which PR3 inhibition plateau is reached” value [3] was no more than 0.02 µM. For the same molecule, the “PR3 Activity (% reduction from control)” value ([3]; 0.02 μM, Day 3) was 93%, the “PR3 Activity (% reduction from control)” value ([3]; 0.02 μM, Day 5) was 93% and the “PR3 Activity (% reduction from control)” value ([3]; 0.02 μM, Day 7) was 85%. For the same molecule, the “PR3 Activity (% reduction from control)” value ([3]; 0.1 μM, Day 3) was 94%, the “PR3 Activity (% reduction from control)” value ([3]; 0.1 μM, Day 5) was 94% and the “PR3 Activity (% reduction from control)” value ([3]; 0.1 μM, Day 7) was 84%. The “max inhibition of PR3 activity observed” value ([3]; regardless of day) was ~ 90%, the “CatG Activity (% reduction from control)” value ([4]; 0.02 μM, Day 3) was 93% and the “CatG Activity (% reduction from control)” value ([4]; 0.02 μM, Day 5) was 97%. The “CatG Activity (% reduction from control)” value ([4]; 0.02 μM, Day 7) was 94%, the “CatG Activity (% reduction from control)” value ([4]; 0.1 μM, Day 3) was 99% and the “CatG Activity (% reduction from control)” value ([4]; 0.1 μM, Day 5) was 100%. For the same molecule, the “CatG Activity (% reduction from control)” value ([4]; 0.1 μM, Day 7) was 96% and the “max inhibition of CatG activity observed” value [4] was ~ 95%.
With `Cn1c(=O)oc2ccc(-c3ccc(C[C@@H](C#N)NC(=O)[C@@H]4CNC[C@H](O)CO4)cc3)cc21` (single isomer, unassigned) [INSM-201, (2S,6S*)—N-[(1S)-1-cyano-2-[4-(3-methyl-2-oxo-2,3-dihydro-1,3-benzoxazol-5-yl)phenyl]ethyl]-6-hydroxy-1,4-oxazepane-2-carboxamide] the IC50 [1] was 13.4 ± 4.1 nM, the “reduction in NE activity” value [2] was “concentration-dependent reduction in NE activity” and the “Neutrophil Elastase Activity (% reduction from control)” value ([2]; 0.02 μM, Day 3) was 67%. For the same molecule, the “Neutrophil Elastase Activity (% reduction from control)” value ([2]; 0.02 μM, Day 5) was 42%, the “Neutrophil Elastase Activity (% reduction from control)” value ([2]; 0.02 μM, Day 7) was 78% and the “Neutrophil Elastase Activity (% reduction from control)” value ([2]; 0.1 μM, Day 3) was 83%. The “Neutrophil Elastase Activity (% reduction from control)” value ([2]; 0.1 μM, Day 5) was 83%, the “Neutrophil Elastase Activity (% reduction from control)” value ([2]; 0.1 μM, Day 7) was 84% and the “maximum inhibition” value ([2]; at 0.1 μM regardless of day) was ~ 85%. For the same molecule, the “NE inhibition at low dose, fluctuations depending on the day (range)” value ([2]; low dose, range over days) was 42-78%, the “reduction in PR3 activity” value [3] was “concentration-dependent reduction in PR3 activity” and the “PR3 Activity (% reduction from control)” value ([3]; 0.02 μM, Day 3) was 45%. For the same molecule, the “PR3 Activity (% reduction from control)” value ([3]; 0.02 μM, Day 5) was 36%, the “PR3 Activity (% reduction from control)” value ([3]; 0.02 μM, Day 7) was 72% and the “PR3 Activity (% reduction from control)” value ([3]; 0.1 μM, Day 3) was 79%. The “PR3 Activity (% reduction from control)” value ([3]; 0.1 μM, Day 5) was 96%, the “PR3 Activity (% reduction from control)” value ([3]; 0.1 μM, Day 7) was 96% and the “max inhibition of PR3 activity observed” value ([3]; at 1 μM on D5 and D7) was ~ 95%. The “PR3 inhibition at low dose, fluctuations depending on the day (range)” value ([3]; low dose, range over days) was 36%-72%, the “reduction in CatG activity” value [4] was “concentration-dependent reduction in CatG activity” and the “CatG Activity (% reduction from control)” value ([4]; 0.02 μM, Day 3) was 46%. The “CatG Activity (% reduction from control)” value ([4]; 0.02 μM, Day 5) was 27%, the “CatG Activity (% reduction from control)” value ([4]; 0.02 μM, Day 7) was 78% and the “CatG Activity (% reduction from control)” value ([4]; 0.1 μM, Day 3) was 90%. The “CatG Activity (% reduction from control)” value ([4]; 0.1 μM, Day 5) was 94%, the “CatG Activity (% reduction from control)” value ([4]; 0.1 μM, Day 7) was 98% and the “max inhibition of CatG activity observed” value ([4]; at 1 μM) was ~ 95%. For the same molecule, the “CatG inhibition at low dose, fluctuations depending on the day (range)” value ([4]; low dose, range over days) was 27-78%.
`COC1CNC[C@@H](C(=O)N[C@H](C#N)Cc2ccc(-c3ccc4oc(=O)n(C)c4c3)cc2)OC1` (mixture of isomers) [INSM-202, (6-rac)-(2S)—N-[(1S)-1-cyano-2-[4-(3-methyl-2-oxo-2,3-dihydro-1,3-benzoxazol-5-yl)phenyl]ethyl]-6-methoxy-1,4-oxazepane-2-carboxamide] was tested, and the IC50 [1] was 1.1 ± 0.2 nM, the “Neutrophil Elastase Activity (% reduction from control)” value ([2]; 0.02 μM, Day 3) was 86% and the “Neutrophil Elastase Activity (% reduction from control)” value ([2]; 0.02 μM, Day 5) was 80%. The “Neutrophil Elastase Activity (% reduction from control)” value ([2]; 0.02 μM, Day 7) was 89%, the “Neutrophil Elastase Activity (% reduction from control)” value ([2]; 0.1 μM, Day 3) was 78% and the “Neutrophil Elastase Activity (% reduction from control)” value ([2]; 0.1 μM, Day 5) was 90%. For the same molecule, the “Neutrophil Elastase Activity (% reduction from control)” value ([2]; 0.1 μM, Day 7) was 88%, the “maximum inhibition” value ([2]; regardless of day) was ~ 85% and the “PR3 Activity (% reduction from control)” value ([3]; 0.02 μM, Day 3) was 94%. The “PR3 Activity (% reduction from control)” value ([3]; 0.02 μM, Day 5) was 95%, the “PR3 Activity (% reduction from control)” value ([3]; 0.02 μM, Day 7) was 93% and the “PR3 Activity (% reduction from control)” value ([3]; 0.1 μM, Day 3) was 94%. The “PR3 Activity (% reduction from control)” value ([3]; 0.1 μM, Day 5) was 96%, the “PR3 Activity (% reduction from control)” value ([3]; 0.1 μM, Day 7) was 98% and the “max inhibition of PR3 activity observed” value ([3]; regardless of day) was ~ 95%. The “CatG Activity (% reduction from control)” value ([4]; 0.02 μM, Day 3) was 93%, the “CatG Activity (% reduction from control)” value ([4]; 0.02 μM, Day 5) was 94% and the “CatG Activity (% reduction from control)” value ([4]; 0.02 μM, Day 7) was 99%. For the same molecule, the “CatG Activity (% reduction from control)” value ([4]; 0.1 μM, Day 3) was 100%, the “CatG Activity (% reduction from control)” value ([4]; 0.1 μM, Day 5) was 100% and the “CatG Activity (% reduction from control)” value ([4]; 0.1 μM, Day 7) was 100%. For the same molecule, the “max inhibition of CatG activity observed” value [4] was ~ 95%.
